Literature values in US9180154B2, “Method of manufacturing magnoliidae compounds” (Arizona Health Consulting Group, LLC, priority 2009, dated 2015).

Experiments:
D1 receptors = target: T1, D1 receptors (Rattus norvegicus, UniProt P18901); details: rats with unilateral nigral lesion (DA receptor super sensitivity in striatum)
T1 construct: from tissue; host or cells: rats with unilateral nigral lesion (in vivo; striatum mentioned)

D2 receptor = target: T2, D2 receptor (Rattus norvegicus, UniProt P61169)
T2 construct: from tissue; host or cells: normal rats (in vivo; tissue not specified)
T2 sequence (P61169 whole entry): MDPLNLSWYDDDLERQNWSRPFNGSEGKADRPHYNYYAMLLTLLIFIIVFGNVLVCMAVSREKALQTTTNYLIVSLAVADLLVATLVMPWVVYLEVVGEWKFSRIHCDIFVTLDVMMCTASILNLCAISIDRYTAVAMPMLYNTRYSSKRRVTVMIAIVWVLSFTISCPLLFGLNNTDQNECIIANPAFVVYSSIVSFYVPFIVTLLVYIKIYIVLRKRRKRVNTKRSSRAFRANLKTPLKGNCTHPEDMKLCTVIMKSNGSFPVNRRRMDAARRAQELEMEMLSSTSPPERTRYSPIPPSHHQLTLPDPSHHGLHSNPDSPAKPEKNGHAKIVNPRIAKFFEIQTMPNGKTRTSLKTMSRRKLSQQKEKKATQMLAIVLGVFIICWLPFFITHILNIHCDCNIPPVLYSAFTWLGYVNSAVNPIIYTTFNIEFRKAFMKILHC

[1] = tested on: D1-type and D2-type DA receptor; details: D1-type versus D2-type DA receptor

T1 sequence (P18901 whole entry): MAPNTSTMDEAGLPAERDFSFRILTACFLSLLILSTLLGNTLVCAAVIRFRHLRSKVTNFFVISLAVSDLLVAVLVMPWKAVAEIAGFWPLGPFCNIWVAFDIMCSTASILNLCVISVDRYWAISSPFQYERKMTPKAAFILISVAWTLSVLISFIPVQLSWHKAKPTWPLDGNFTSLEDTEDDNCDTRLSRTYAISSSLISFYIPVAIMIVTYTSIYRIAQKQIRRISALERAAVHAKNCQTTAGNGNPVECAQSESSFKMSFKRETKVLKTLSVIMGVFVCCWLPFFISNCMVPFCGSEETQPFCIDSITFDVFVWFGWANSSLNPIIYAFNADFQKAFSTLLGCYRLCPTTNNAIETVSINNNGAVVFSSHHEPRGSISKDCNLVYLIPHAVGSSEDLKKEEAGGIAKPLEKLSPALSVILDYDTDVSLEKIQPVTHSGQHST

Row | Structure (SMILES) | receptor action in lesioned rats (D1 receptors) | receptor action in normal rats (D2 receptor) | effect on D1-type and D2-type DA receptor binding [1]
1 | COc1cc2c(cc1O)[C@@H]1Cc3ccc(O)c(OC)c3CN1CC2 [l-SPD, l-Stepholidine] | acts on D1 receptors as an agonist | characteristics of D2 receptor antagonist | –
2 | COc1ccc2c(c1OC)CN1CCc3cc4c(cc3C1C2)OCO4 (stereo not drawn) [THB, tetrahydroberberine] | – | – | equipotent
